# Patent US20170305922A1, “CARM1 INHIBITORS AND USES THEREOF” (Epizyme, Inc., priority 2014, published 2017)
# Target: T1, Human CARM1 (PRMT4) (Homo sapiens, UniProt Q86X55)
# T1 construct: Flag-CARM1-His was eluted with 200 ug/ml FLAG peptide in buffer A; made in house; host or cells: HEK 293F cells infected with recombinant baculovirus (pFastBacMam)
# T1 sequence (Q86X55 1-585 isoform Q86X55-1): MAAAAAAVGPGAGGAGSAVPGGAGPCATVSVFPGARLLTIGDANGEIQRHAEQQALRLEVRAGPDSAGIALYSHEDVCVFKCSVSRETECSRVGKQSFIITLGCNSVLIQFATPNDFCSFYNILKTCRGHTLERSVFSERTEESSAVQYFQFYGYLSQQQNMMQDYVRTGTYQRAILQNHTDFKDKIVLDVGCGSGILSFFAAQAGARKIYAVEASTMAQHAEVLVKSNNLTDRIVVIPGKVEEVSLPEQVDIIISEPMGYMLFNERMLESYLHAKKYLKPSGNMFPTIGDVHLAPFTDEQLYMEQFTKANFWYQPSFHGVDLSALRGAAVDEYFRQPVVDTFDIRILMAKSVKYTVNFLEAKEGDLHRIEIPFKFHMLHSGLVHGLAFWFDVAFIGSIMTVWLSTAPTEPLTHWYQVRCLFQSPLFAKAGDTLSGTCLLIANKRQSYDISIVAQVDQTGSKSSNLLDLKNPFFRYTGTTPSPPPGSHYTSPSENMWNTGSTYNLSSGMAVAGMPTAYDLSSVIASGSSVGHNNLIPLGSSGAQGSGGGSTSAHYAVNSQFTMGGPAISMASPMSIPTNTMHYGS
# Experiment: CARM1 enzyme assay on peptide substrates (3H-SAM Flashplate)
# Conditions: Biochemical assay; CARM1 0.25 nM, 3H-SAM 30 nM, peptide 250 nM; read-out: Biochem IC50
# Description: S-adenosylmethionine (SAM), S-adenosylhomocysteine (SAH), bicine, Tween20, dimethylsulfoxide (DMSO), bovine skin gelatin (BSG), sodium butyrate and Tris(2-carboxyethyl)phosphine hydrochloride solution (TCEP) were purchased from Sigma-Aldrich at the highest level of purity possible. ^3H-SAM was purchase from American Radiolabeled Chemicals with a specific activity of 80 Ci/mmol. 384-well streptavidin Flashplates were purchased from PerkinElmer.
# Peptide representative of human histone H3 residues 16-30 was synthesized with an N-terminal linker-affinity tag motif and a C-terminal amide cap by 21st Century Biochemicals. […] The sequence was Biot-Ahx-[…]-amide and contained a monomethylated arginine at position 26 (SEQ ID NO.:1).
# The gene sequence encoding isoform1 containing a deletion of amino acids 539-561 was amplified subsequently and subcloned into pFastBacMam (Viva Biotech).
# Recombinant baculovirus were generated according to Bac-to-Bac kit instructions (Life Technologies). Protein over-expression was accomplished by infecting exponentially growing HEK 293F cell culture at 1.3×10^6 cell/ml with virus (MOI=10) in the presence of 8 mM sodium butyrate. Infections were carried out at 37° C. for 48 hours, harvested by centrifugation, and stored at −80° C. for purification.
# Column was washed with 500 mM NaCl in buffer A and Flag-CARM1-His was eluted with 200 ug/ml FLAG peptide in buffer A. Pooled fractions were dialyzed in 20 mM Tris, 150 mM NaCl, 5% glycerol and 1 mM DTT, pH 7.8.
# The assays were all performed in a buffer consisting of 20 mM Bicine (pH=7.6), 1 mM TCEP, 0.005% BSG, and 0.002% Tween 20, prepared on the day of use. Compounds in 100% DMSO (1 ul) were spotted into a polypropylene 384-well V-bottom plates (Greiner) using a Platemate Plus outfitted with a 384-channel head (Thermo Scientific). DMSO (1 ul) was added to Columns 11, 12, 23, 24, rows A-H for the maximum signal control and 1 ul of SAH, a known product and inhibitor of CARM1, was added to columns 11, 12, 23, 24, rows I-P for the minimum signal control. A cocktail (40 ul) containing the CARM1 enzyme was added by Multidrop Combi (Thermo-Fisher). The compounds were allowed to incubate with CARM1 for 30 min at room temperature, then a cocktail (10 ul) containing ^3H-SAM and peptide was added to initiate the reaction (final volume=51 ul). The final concentrations of the components were as follows: CARM1 was 0.25 nM, ^3H-SAM was 30 nM, peptide was 250 nM, SAH in the minimum signal control wells was 1 mM, and the DMSO concentration was 2%. The assays were stopped by the addition of non-radiolabeled SAM (10 ul) to a final concentration of 300 uM, which dilutes the ^3H-SAM to a level where its incorporation into the peptide substrate is no longer detectable. 50 ul of the reaction in the 384-well polypropylene plate was then transferred to a 384-well Flashplate and the biotinylated peptides were allowed to bind to the streptavidin surface for at least 1 hour before being washed once with 0.1% Tween20 in a Biotek ELx405 plate washer. The plates were then read in a PerkinElmer TopCount plate reader to measure the quantity of ^3H-labeled peptide bound to the Flashplate surface, measured as disintegrations per minute (dpm) or alternatively, referred to as counts per minute (cpm).
# where dpm=disintegrations per minute, cmpd=signal in assay well, and min and max are the respective minimum and maximum signal controls.
# where top and bottom are the normally allowed to float, but may be fixed at 100 or 0 respectively in a 3-parameter fit. The Hill Coefficient normally allowed to float but may also be fixed at 1 in a 3-parameter fit. Y is the % inhibition and X is the compound concentration.
row,SMILES,IC50 [nM]
1,CNC[C@@H](O)COc1ccc(Cl)c(-c2nc(-c3c(C)noc3C)c(C)c(N3CC4(CCN(C5COC5)CC4)C3)n2)c1 [Example 64],11
2,CNC[C@@H](O)COc1ccc(Cl)c(-c2nc(-c3c(C)noc3C)c(C)c(N3C[C@]4(C)CN(C(=O)OC)C[C@]4(C)C3)n2)c1 [Example 65],7.8
3,CNC[C@@H](O)COc1ccc(Cl)c(-c2nc(-c3c(C)noc3C)c(C)c(N3CC4(CCC(F)(F)CC4)C3)n2)c1 [Example 67],5
4,CNC[C@@H](O)COc1ccc(Cl)c(-c2nc(-c3c(C)noc3C)c(C)c(N3C[C@]4(C)CN(CC(F)F)C[C@]4(C)C3)n2)c1 [Example 71],5.6
5,CNC[C@@H](O)COc1ccc(Cl)c(-c2nc(-c3c(C)noc3C)c(C)c(N3Cc4cc(=O)n(C(C)C)cc4C3)n2)c1 [Example 73],6.1
6,CNC[C@@H](O)COc1ccc(Cl)c(-c2nc(-c3c(Cl)cnn3C)c(C)c(N3CC4(CCN(C(=O)OC)CC4)C3)n2)c1 [Example 74],9.7
7,CCn1ncc(Cl)c1-c1nc(-c2cc(OC[C@H](O)CNC)ccc2Cl)nc(N2CC3(CCN(C(=O)OC)CC3)C2)c1C [Example 75],12.5

# Now those with a lower IC50, led by results:
row,IC50 [nM],SMILES
1,3.9,CNC[C@@H](O)COc1ccc(Cl)c(-c2nc(-c3c(C)noc3C)c(C)c(N3CC4(CC=C(F)CC4)C3)n2)c1 [Example 68]
2,3.7,CNC[C@@H](O)COc1ccc(Cl)c(-c2nc(-c3c(C)noc3C)c(C)c(N3Cc4nc(C)n(C)c(=O)c4C3)n2)c1 [Example 66]
3,3.2,CNC[C@@H](O)COc1ccc(Cl)c(-c2nc(-c3c(C)noc3C)c(C)c(N3Cc4cnc(OC)nc4C3)n2)c1 [Example 70]
4,2.9,CCOc1ncc2c(n1)CN(c1nc(-c3cc(OC[C@H](O)CNC)ccc3Cl)nc(-c3c(C)noc3C)c1C)C2 [Example 72]
5,1.2,CNC[C@@H](O)COc1ccc(Cl)c(-c2nc(-c3c(C)noc3C)c(C)c(N3Cc4ccc(C)nc4C3)n2)c1 [Example 69]

# Tested on: asymmetric di-methyl PABP1 in RKO cells
# Experiment: RKO methylation assay: In Cell Western (ICW) for asymmetric di-methyl PABP1 (PABP1me2a)
# Conditions: Homo sapiens, RKO, 48 h, Cellular-based (PABP1me2a) ICW (In Cell Western) assay
# Description: RKO adherent cells were purchased from ATCC (American Type Culture Collection), Manassas, Va., USA. DMEM/Glutamax medium, penicillin-streptomycin, heat inactivated fetal bovine serum, 0.05% trypsin and D-PBS were purchased from Life Technologies, Grand Island, N.Y., USA. Odyssey blocking buffer, 800CW goat anti-rabbit IgG (H+L) antibody, and Licor Odyssey infrared scanner were purchased from Licor Biosciences, Lincoln, Nebr., USA. Asymmetric di-methyl PABP1 antibody was purchased from Cell Signaling Technology, Danvers, Mass., USA. Methanol was purchased from VWR, Franklin, Mass., USA. 10% Tween 20 was purchased from KPL, Inc., Gaithersburg, Md., USA. Paraformaldehyde (PFA) was purchased from EM Sciences. DRAQ5 was purchased from Biostatus Limited, Leicestershire, UK.
# RKO adherent cells were maintained in growth medium (DMEM/Glutamax medium supplemented with 10% v/v heat inactivated fetal bovine serum and 100 units/mL penicillin-streptomycin) and cultured at 37° C. under 5% CO2.
# Cell treatment, In Cell Western (ICW) for detection of asymmetric di-methyl PABP1 and DNA content: RKO cells were seeded in assay medium at a concentration of 30,000 cells per mL to a poly-D-lysine coated 384 well culture plate (BD Biosciences 356697) with 50 μL per well. Compound (100 nL) from a 96-well source plate was added directly to 384 well cell plate. Plates were incubated at 37° C., 5% CO2 for 48 hours. After two days of incubation, plates were brought to room temperature outside of the incubator for ten minutes and blotted on paper towels to remove cell media. Cells were fixed for 20 minutes at room temperature by adding 50 ul of 8% PFA followed by aspiration of supernatant with the Biotek EL406 plate washer. Cells were then permeabilized by addition of 50 μL of ice cold 100% methanol directly to each well and incubated for 30 min at room temperature. After 30 min, plates were transferred to a Biotek EL406 plate washer and washed 2 times with 100 μL per well of wash buffer (1×PBS). Next 60 μL per well of Odyssey blocking buffer (Odyssey Buffer with 0.1% Tween 20 (v/v)) were added to each plate and incubated 1 hour at room temperature. Blocking buffer was removed and 20 μL per well of primary antibody was added (asymmetric-methyl PABP1) diluted 1:400 in Odyssey buffer with 0.1% Tween 20 (v/v)) and plates were incubated overnight (16 hours) at 4° C. Plates were washed 5 times with 100 μL per well of wash buffer. Next 20 μL per well of secondary antibody was added (1:800 800CW goat anti-rabbit IgG (H+L) antibody, 1:2000 DRAQ5 in Odyssey buffer with 0.1% Tween 20 (v/v)) and incubated for 1 hour at room temperature. The plates were washed 5 times with 100 μL per well wash buffer then 2 times with 100 μL per well of water. Plates were allowed to dry at room temperature then imaged on the Licor Odyssey machine which measures integrated intensity at 700 nm and 800 nm wavelengths. Both 700 and 800 channels were scanned.
# First, the ratio for each well was determined by:
# Each plate included fourteen control wells of DMSO only treatment (minimum inhibition) as well as fourteen control wells for maximum inhibition treated with 20 μM of a reference compound. The average of the ratio values for each control type was calculated and used to determine the percent […] for each test well in the plate. Reference compound was serially diluted three-fold in DMSO for a total of nine test concentrations, beginning at 20 μM.
# Percent inhibition was determined and IC50 curves were generated using triplicate wells per concentration of compound.
row,SMILES,IC50 [nM]
1,CNC[C@@H](O)COc1ccc(Cl)c(-c2nc(-c3c(C)noc3C)c(C)c(N3CC4(CCN(C5COC5)CC4)C3)n2)c1 [Example 64],111
2,CNC[C@@H](O)COc1ccc(Cl)c(-c2nc(-c3c(C)noc3C)c(C)c(N3C[C@]4(C)CN(C(=O)OC)C[C@]4(C)C3)n2)c1 [Example 65],234
3,CNC[C@@H](O)COc1ccc(Cl)c(-c2nc(-c3c(C)noc3C)c(C)c(N3CC4(CCC(F)(F)CC4)C3)n2)c1 [Example 67],71
4,CNC[C@@H](O)COc1ccc(Cl)c(-c2nc(-c3c(C)noc3C)c(C)c(N3C[C@]4(C)CN(CC(F)F)C[C@]4(C)C3)n2)c1 [Example 71],221
5,CNC[C@@H](O)COc1ccc(Cl)c(-c2nc(-c3c(C)noc3C)c(C)c(N3Cc4cc(=O)n(C(C)C)cc4C3)n2)c1 [Example 73],422
6,CNC[C@@H](O)COc1ccc(Cl)c(-c2nc(-c3c(Cl)cnn3C)c(C)c(N3CC4(CCN(C(=O)OC)CC4)C3)n2)c1 [Example 74],207
7,CCn1ncc(Cl)c1-c1nc(-c2cc(OC[C@H](O)CNC)ccc2Cl)nc(N2CC3(CCN(C(=O)OC)CC3)C2)c1C [Example 75],396

# Now from value to molecule:
row,IC50 [nM],SMILES
1,144,CNC[C@@H](O)COc1ccc(Cl)c(-c2nc(-c3c(C)noc3C)c(C)c(N3CC4(CC=C(F)CC4)C3)n2)c1 [Example 68]
2,261,CNC[C@@H](O)COc1ccc(Cl)c(-c2nc(-c3c(C)noc3C)c(C)c(N3Cc4nc(C)n(C)c(=O)c4C3)n2)c1 [Example 66]
3,19,CNC[C@@H](O)COc1ccc(Cl)c(-c2nc(-c3c(C)noc3C)c(C)c(N3Cc4cnc(OC)nc4C3)n2)c1 [Example 70]
4,12,CCOc1ncc2c(n1)CN(c1nc(-c3cc(OC[C@H](O)CNC)ccc3Cl)nc(-c3c(C)noc3C)c1C)C2 [Example 72]
5,22,CNC[C@@H](O)COc1ccc(Cl)c(-c2nc(-c3c(C)noc3C)c(C)c(N3Cc4ccc(C)nc4C3)n2)c1 [Example 69]
